Source: patent publication US20240041830A1, “CIRCULATING BIOMARKERS OF RESPONSE TO PD-1/PD-L1 BLOCKADE AND GSK-3 INHIBITION” (Brown University, priority 2022, published 2024)

Legend:
KM12C = experiment: CellTiter Glo cell viability; type: cell-based; details: Homo sapiens, treatment up to 50 μM for seventy-two hours
Experimental: Measurement of cell viability. Cells were seeded at a density of 3×10^3 cells per well in a 96-well plate (Greiner Bio-One, Monroe, NC, USA). Cell viability was assessed using the CellTiter Glo assay (Promega, Madison, WI, USA). Cells were mixed with 25 μL of CellTiter-Glo reagents in 100 μL of culture volume, and bioluminescence imaging was measured using the Xenogen IVIS imager (Caliper Life Sciences, Waltham, MA). The percent of cell viability was determined by normalizing the luminescence signal to control wells. Dose-response curves were generated, and the half-maximal inhibitory concentration (IC50) was calculated using Graph-Pad Prism (RRID: SCR_002798) version 9.2.0. For IC50 generation, concentrations were log-transformed, and data were then normalized to control, and a log (inhibitor) versus response (three parameters) test was used. A panel of human colorectal cell lines was chosen to provide a varied mutational background (TP53, KRAS, BRAF, TRK, APC, PIK3CA). Cells were treated with elraglusib at doses up to 50 μM for seventy-two hours to determine IC10, IC30, IC50, and IC70. Cytokine, chemokine, and growth factor levels were analyzed in the tumor cell culture supernatants after treatment at IC10, IC30, IC50, and IC70 for forty-eight hours using a Luminex 200 multiplexing instrument. Co-culture experiments were conducted with GFP+ SW480 colorectal cancer cells and either NK-92 natural killer cells or TALL-104 T cells at various effector/target ratios in a 48-well plate, in the presence or absence of elraglusib. The inventors performed cell titer glo analysis to determine IC doses after treatment up to 50 μM for seventy-two hours. See TABLE below of IC50 values for the three cell lines.

[1] = toxicity monitoring in CT-26 BALB/c mice: body weight, serum chemistry, complete blood count; type: in vivo, mouse
Experimental: In vivo studies. The experimental in vivo protocol (Protocol #19-01-003) was approved by the Institutional Animal Care and Use Committee of Brown University (Providence, RI, USA). Six-week to seven-week-old female BALB/c mice (RRID: IMSR_JAX:000651) were purchased from Taconic. A total of 50,000 cells were suspended in 50 μL ice-cold PBS and 50 μL Matrigel (Catalog #354234, Corning, New York, NY, USA), and 100 μL was injected subcutaneously into the rear flanks. Once tumor volume reached at least 100 mm^3, mice were randomly assigned to one of seven groups (12 mice/group): Control (isotype), elraglusib, elraglusib+Isotype, anti-PD-1, anti-PD-L1, elraglusib+anti-PD-1, and elraglusib+anti-PD-L1. All treatments were delivered by IP injection using the following dosing schedule: Isotype (70 mg/kg, twice a week), elraglusib (70 mg/kg, twice a week), anti-PD-1 (10 mg/kg, twice a week), anti-PD-L1 (10 mg/kg, twice a week). Treatment dosing was determined based on previous studies of elraglusib and anti-PD-1/anti-PD-L1. Ugolkov et al., Anticancer Drugs, 29, 717-724 (2018); McClanahan et al., Blood, 126, 203-211 (2015); Bernardo et al., Oncoimmunology, 10, 1881268 (2021). The solvent for elraglusib was DMSO and the formulation buffer for elraglusib was made using 75% PEG400, 7% Tween 80, and 18% Ethanol. The treatment continued until mice developed signs of discomfort from excessive tumor growth. Mice were weighed once a week to monitor signs of drug toxicity. The length (L) and width (W) of the masses were measured three times per week with a digital caliper, and the tumor volume was calculated by applying the formula: 0.5LW2 Collection of whole blood and serum was performed by cardiac puncture and sent to Antech Diagnostics GLP (Morrisville, NC, USA) for blood cell count and chemistry tests, or in-house cytokine profiling. Tumors and organs were dissected and harvested for analysis by immunohistochemistry and flow cytometry.
The inventors evaluated the potential for elraglusib to increase the efficacy of immune checkpoint blockade and utilized a syngeneic murine colon carcinoma BALB/c murine model using a MSS cell line CT-26 (FIG. 4A). Mice were randomly assigned to one of seven groups: isotype (N=12), elraglusib (N=12), elraglusib+isotype (N=12), anti-PD-1 (N=12), anti-PD-L1 (N=12), elraglusib+anti-PD-1 (N=12), and elraglusib+ anti-PD-L1 (N=12). […] The inventors saw the most sustained response in the elraglusib and anti-PD-L1 combination therapy group.
TABLE 13 description. […] Whole blood from long-term mice sacrificed was submitted for serum chemistry analysis. Results are shown from the complete metabolic panel and complete blood count with differential. ALB: Albumin, ALP: Alkaline Phosphatase, ALT: Alanine aminotransferase, AMY: Amylase, ANIS: Anisocytosis, AST: Aspartate aminotransferase, ATYP: Atypical Lymphs, BAS: Absolute Basophils, BAS%: % Basophils, BUN: Urea Nitrogen, CA: Calcium, CHOL: Cholesterol, CL: Chloride, CPK: Creatine kinase, CPLT: Clumped Platelets, CREA: Creatinine, DBIL: Direct Bilirubin, EOS: Absolute Eosinophils, EOS% : % Eosinophils, GGT: Gamma-glutamyl Transferase, GLU: Glucose, HB: Hemoglobin, HCT: Hematocrit, HJB: Howell-Jolly Bodies, HYPO: Hypochromasia, HYPR: Hyperchromasia, K: Potassium, LDH: Lactate Dehydrogenase, LIP: Lipase, LPLT: Large Platelets, LUC: Absolute Large Unstained Cells, LUC%: % Large Unstained Cells, LYM: Absolute Lymphocytes, LYM%: % Lymphocytes, MAC: Macrocytosis, MCH: Mean Corpuscular Hemoglobin, MCHC: Mean Corpuscular Hemoglobin […], MCV: Mean Corpuscular Volume, MG: Magnesium, MIC: Microcytosis, MON: Absolute Monocytes, MON%: % Monocytes, NA: Sodium, NEU: Absolute Neutrophils, NEU%: % Neutrophils, PHOS: Inorganic Phosphorus, PLT: Platelet Count, POLK: Poikilocytosis, RBC: Red Blood Cell Count, TBIL: Total Bilirubin, TPRO: Total Protein, TRIG: Triglyceride, WBC: White Blood Cell Count.

HCT 116 GFP+ cells = experiment: single-color GFP+ immune cell co-culture
Experimental: Single-color immune cell co-culture experiments. A total of 5000 HT-29 GFP+ or HCT 116 GFP+ cells were plated per well in a clear-bottom, black-walled 96-well tissue culture plate and were allowed to adhere overnight. Cells were subsequently treated with DMSO, 5 μM elraglusib, or 5000 TALL-104 or NK-92 cells (for an effector-to-tumor ratio of 1:1) for forty-eight hours. Nine images were taken per well at 10× magnification using a Molecular Devices ImageXpress® Confocal HT.ai High-Content Imaging System and quantified for the number of GFP+ objects using the MetaXpress (RRID: SCR_016654) software (Molecular Devices, San Jose, CA, USA). 40× images were also taken at twenty-four hours for representative images of cellular morphology changes.
To determine if pyroptosis-mediated immune cell activity played a role in the co-culture results, the inventors examined higher-power co-culture images for evidence of pyroptosis.

For `Cn1cc(C2=C(c3coc4ccc(F)cc34)C(=O)NC2=O)c2cc3c(cc21)OCO3` [elraglusib], the IC50 (KM12C) was 200 nM, the “ALB (Albumin)” value ([1]; long-term mice sacrificed) was 2.7 g/dL and the “ALP (Alkaline Phosphatase)” value ([1]; long-term mice sacrificed) was 4 U/L. For the same compound, the “ALT (Alanine aminotransferase)” value ([1]; long-term mice sacrificed) was 26 U/L, the “AMY (Amylase)” value ([1]; long-term mice sacrificed) was 275 U/L and the “AST (Aspartate aminotransferase)” value ([1]; long-term mice sacrificed) was 198 U/L. The “BUN (Urea Nitrogen)” value ([1]; long-term mice sacrificed) was 27 mg/dL, the “CHOL (Cholesterol)” value ([1]; long-term mice sacrificed) was 101 mg/dL and the “CL (Chloride)” value ([1]; long-term mice sacrificed) was 111 mmol/L. The “CPK (Creatine kinase)” value ([1]; long-term mice sacrificed) was 1968 U/L, the “CREA (Creatinine)” value ([1]; long-term mice sacrificed) was 0.2 mg/dL and the “DBIL (Direct Bilirubin)” value ([1]; long-term mice sacrificed) was 0 mg/dL. For the same compound, the “GGT (Gamma-glutamyl Transferase)” value ([1]; long-term mice sacrificed) was 0 U/L, the “GLU (Glucose)” value ([1]; long-term mice sacrificed) was 230 mg/dL and the “K (Potassium)” value ([1]; long-term mice sacrificed) was greater than 10.0 mmol/L. For the same compound, the “LDH (Lactate Dehydrogenase)” value ([1]; long-term mice sacrificed) was 2230 U/L, the “LIP (Lipase)” value ([1]; long-term mice sacrificed) was 59 U/L and the “MG (Magnesium)” value ([1]; long-term mice sacrificed) was 1.2 mg/dL. The “NA (Sodium)” value ([1]; long-term mice sacrificed) was 146 mmol/L, the “PHOS (Inorganic Phosphorus)” value ([1]; long-term mice sacrificed) was 8.2 mg/dL and the “TBIL (Total Bilirubin)” value ([1]; long-term mice sacrificed) was 0.5 mg/dL. For the same compound, the “TPRO (Total Protein)” value ([1]; long-term mice sacrificed) was 4.5 g/dL, the “TRIG (Triglyceride)” value ([1]; long-term mice sacrificed) was 136 mg/dL and the “renal function (BUN and creatinine)” value ([1]; mouse, in vivo) was “maintained normal renal function”. For the same compound, the tumor cell death (HCT 116 GFP+ cells; 5 μM elraglusib and NK-92 vs drug-only or immune-cell-only) was “increased tumor cell death”, the “GFP+ cells per low-powered field” value (HCT 116 GFP+ cells; 5 μM elraglusib only vs DMSO only, forty-eight hours) was “significant decrease” and the “number of GFP+ cells per field” value (HCT 116 GFP+ cells; TALL-104 and 5 μM elraglusib vs TALL-104) was “significant decrease”. The pyroptotic events (HCT 116 GFP+ cells; co-culture with TALL-104, 5 μM elraglusib) was “significant increase”.
